Experimental data reported in patent US20120015965A1, “PHARMACEUTICAL COMPOSITION COMPRISING N-[3-CHLORO-4-[(3-FLUOROPHENYL)METHOXY] PHENYL]-6-[5[[[2-(METHYLSULFONYL) ETHYL]AMINO]METHYL]-2-FURYL]-4- QUINAZOLINAMINE” (Ratiopharm GmbH, priority 2008, published 2012).

Test: Wetting angle (contact angle) of the API by goniometer
Assay type: physicochemical
Details: advancing contact angle, water, 22° C., about 34% RH; accuracy about ±2°; ditosylate monohydrate
Experimental: Alternatively, the above described necessities can be complied with if the active pharmaceutical ingredient used in the preparation of the pharmaceutical composition has a low wetting angle (also: contact angle). The contact angle is a measure of the wettability, that is the lower the contact angle of a given substance, the better it's wettability. Preferably, the wetting angle is below 55°, preferably below 50° and most preferred below 47°. The wetting angle can be measured according to standard methods known in the art, e.g. by means of a goniometer. For this measurement 0.3 g of API is compressed using a KBr press (2000 kg for 2 minutes) to a moulding with a diameter of 1.25 cm. The sample is stored at 100% RH and placed on a glass frit that is kept in contact with water (Millipore quality) one hour prior to the measurement. The wetting angle is then measured on an OCA40, Dataphysics Instruments GmbH, Filderstadt, at 22° C. and about 34% RH at three different sample positions and at different drop sites (3-5 μl of water, Millipore quality) by a static measurement of advancing and receding contact angles via drop contour analysis using ellipse fit (SCA 20, Dataphysics Instruments GmbH, Filderstadt). The wetting angle is defined as the advancing contact angle. The accuracy of measurement is about ±2°.

Substance | contact angle
Lapatinib ditosylate monohydrate [API used in examples 1 and 2] | 56 °
Lapatinib ditosylate monohydrate [API used in examples 3 to 5] | 45 °
